Assay results as given in patent publication US11759462B2, “Spirocyclic compounds as tryptophan hydroxylase inhibitors” (priority 2013, dated 2023).

Each molecule was assayed against T1, Recombinant human TPH1 (MBP tagged) (Homo sapiens, UniProt P17752) (assay: TPH1 in vitro inhibition assay (kinetic fluorescence)). Settings: TPH1 Range (TPH1 inhibition IC50).
T1 construct: cloning full length human TPH1 cDNA in to a bacterial pMAL-c5E expression vector; made in house; host or cells: E. coli BL21 (DE3)
T1 sequence (P17752 1-444): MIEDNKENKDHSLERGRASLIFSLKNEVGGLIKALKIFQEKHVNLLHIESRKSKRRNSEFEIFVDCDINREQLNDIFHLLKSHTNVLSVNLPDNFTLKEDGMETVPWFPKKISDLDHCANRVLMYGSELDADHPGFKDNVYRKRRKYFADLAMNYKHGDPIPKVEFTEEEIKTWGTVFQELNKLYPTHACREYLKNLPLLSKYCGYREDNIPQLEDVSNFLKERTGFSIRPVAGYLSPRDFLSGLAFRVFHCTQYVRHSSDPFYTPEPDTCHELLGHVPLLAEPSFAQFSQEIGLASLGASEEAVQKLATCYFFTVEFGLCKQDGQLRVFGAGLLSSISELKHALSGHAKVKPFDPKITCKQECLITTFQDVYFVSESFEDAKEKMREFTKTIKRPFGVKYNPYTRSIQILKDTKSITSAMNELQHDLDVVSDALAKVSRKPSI
Format: biochemical
How it was run: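 Final mix: 15 nM MBP-TPH1, 30 μM Trp, 36 μM 6-methyltetrahydropterin, 25 μM ferrous ammonium sulfate, 50 mM MES pH 7.1, 1% DMSO, room temperature.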
For `Nc1nc(O[C@H](c2ccc(Cl)cc2-c2ccc(S(N)(=O)=O)cc2)C(F)(F)F)cc(N2CCC3(CC2)CN[C@H](C(=O)O)C3)n1` [Example 34ae, (S)-8-(2-amino-6-((R)-1-(5-chloro-4′-sulfamoyl-[1,1′-biphenyl]-2-yl)-2,2,2-trifluoroethoxy)pyrimidin-4-yl)-2,8-diazaspiro[4.5]decane-3-carboxylic acid], the IC50 was 0.3 to 3 µM.

Same assay, conditions: read-out: TPH1 Range (TPH1 inhibition IC50)
Molecule `Cc1ccn(-c2cc(-c3ccc(Cl)c(F)c3)ccc2[C@@H](Oc2cc(N3CCC4(CC3)CN[C@H](C(=O)O)C4)nc(N)n2)C(F)(F)F)n1` [Example 1ao, (S)-8-(2-amino-6-((R)-1-(4′-chloro-3′-fluoro-3-(3-methyl-1H-pyrazol-1-yl)-[1,1′-biphenyl]-4-yl)-2,2,2-trifluoroethoxy)pyrimidin-4-yl)-2,8-diazaspiro[4.5]decane-3-carboxylic acid] has an IC50 of under 0.05 µM. With `CSc1ccc(-c2ccc([C@@H](Oc3cc(N4CCC5(CC4)CN[C@H](C(=O)O)C5)nc(N)n3)C(F)(F)F)c(-n3ccc(C)n3)c2)cc1` [Example 1b, (S)-8-(2-amino-6-((R)-2,2,2-trifluoro-1-(3-(3-methyl-1H-pyrazol-1-yl)-4′-(methylthio)-[1,1′-biphenyl]-4-yl)ethoxy)pyrimidin-4-yl)-2,8-diazaspiro[4.5]decane-3-carboxylic acid] the IC50 was under 0.05 µM. For `Cn1c(=O)ccc2cc(-c3ccc([C@@H](Oc4cc(N5CCC6(CC5)CN[C@H](C(=O)O)C6)nc(N)n4)C(F)(F)F)cc3)ccc21` [Example 55u, (S)-8-(2-amino-6-((R)-2,2,2-trifluoro-1-(4-(1-methyl-2-oxo-1,2-dihydroquinolin-6-yl)phenyl)ethoxy)pyrimidin-4-yl)-2,8-diazaspiro[4.5]decane-3-carboxylic acid], the IC50 was 0.05 to 0.3 µM. `Cc1ccc(-c2ccc([C@@H](Oc3cc(N4CCC5(CC4)CN[C@H](C(=O)O)C5)nc(N)n3)C(F)(F)F)cc2)cc1` [Example 55cw, (S)-8-(2-amino-6-((R)-2,2,2-trifluoro-1-(4′-methyl-[1,1′-biphenyl]-4-yl)ethoxy)pyrimidin-4-yl)-2,8-diazaspiro[4.5]decane-3-carboxylic acid] was tested, and the IC50 was 0.3 to 3 µM. With `COc1ccccc1-c1ccc([C@@H](Oc2cc(N3CCC4(CC3)CN[C@H](C(=O)O)C4)nc(C)n2)C(F)(F)F)c(-n2ccc(C)n2)c1` [Example 29p, (S)-8-(2-methyl-6-((R)-2,2,2-trifluoro-1-(2′-methoxy-3-(3-methyl-1H-pyrazol-1-yl)-[1,1′-biphenyl]-4-yl)ethoxy)pyrimidin-4-yl)-2,8-diazaspiro[4.5]decane-3-carboxylic acid] the IC50 was under 0.05 µM. `COCCOc1cccc(-c2cc(Cl)ccc2[C@@H](Oc2cc(N3CCC4(CC3)CN[C@H](C(=O)O)C4)nc(N)n2)C(F)(F)F)c1` [Example 34cv, (S)-8-(2-amino-6-((R)-1-(5-chloro-3′-(2-methoxyethoxy)-[1,1′-biphenyl]-2-yl)-2,2,2-trifluoroethoxy)pyrimidin-4-yl)-2,8-diazaspiro[4.5]decane-3-carboxylic acid] was tested, and the IC50 was under 0.05 µM. In the case of `Nc1nc(O[C@H](c2ccc(-c3ccc4ccncc4c3)cc2)C(F)(F)F)cc(N2CCC3(CC2)CN[C@H](C(=O)O)C3)n1` [Example 55be, (S)-8-(2-amino-6-((R)-2,2,2-trifluoro-1-(4-(isoquinolin-7-yl)phenyl)ethoxy)pyrimidin-4-yl)-2,8-diazaspiro[4.5]decane-3-carboxylic acid], the IC50 is reported as under 0.05 µM. In the case of `Nc1nc(O[C@H](c2ccc(Cl)cc2-n2ncc3ccccc32)C(F)(F)F)cc(N2CCC3(CC2)CN[C@H](C(=O)O)C3)n1` [Example 36c, (S)-8-(2-amino-6-((R)-1-(4-chloro-2-(1H-indazol-1-yl)phenyl)-2,2,2-trifluoroethoxy)pyrimidin-4-yl)-2,8-diazaspiro[4.5]decane-3-carboxylic acid], the IC50 is reported as under 0.05 µM. `Cc1ccn(-c2cc(-c3ccc(Cl)c(C)c3)ccc2[C@@H](Oc2cc(N3CCC4(CC3)CN[C@H](C(=O)O)C4)nc(N)n2)C(F)(F)F)n1` [Example 1bd, (S)-8-(2-amino-6-((R)-1-(4′-chloro-3′-methyl-3-(3-methyl-1H-pyrazol-1-yl)-[1,1′-biphenyl]-4-yl)-2,2,2-trifluoroethoxy)pyrimidin-4-yl)-2,8-diazaspiro[4.5]decane-3-carboxylic acid] gave an IC50 of under 0.05 µM. In the case of `CC(C)Oc1cc(F)cc(-c2cc(Cl)ccc2[C@@H](Oc2cc(N3CCC4(CC3)CN[C@H](C(=O)O)C4)nc(N)n2)C(F)(F)F)c1` [Example 34bl, (S)-8-(2-amino-6-((R)-1-(5-chloro-3′-fluoro-5′-isopropoxy-[1,1′-biphenyl]-2-yl)-2,2,2-trifluoroethoxy)pyrimidin-4-yl)-2,8-diazaspiro[4.5]decane-3-carboxylic acid], the IC50 is reported as 0.05 to 0.3 µM. In the case of `CC(C)Oc1ccc(-c2cc(Cl)ccc2[C@@H](Oc2cc(N3CCC4(CC3)CN[C@H](C(=O)O)C4)nc(N)n2)C(F)(F)F)cc1F` [Example 34al, (S)-8-(2-amino-6-((R)-1-(5-chloro-3′-fluoro-4′-isopropoxy-[1,1′-biphenyl]-2-yl)-2,2,2-trifluoroethoxy)pyrimidin-4-yl)-2,8-diazaspiro[4.5]decane-3-carboxylic acid], the IC50 is reported as 3 to 10 µM. `Nc1nc(O[C@H](c2ccc(Cl)cc2-n2ccc(C(F)(F)F)n2)C(F)(F)F)cc(N2CCC3(CC2)CN[C@H](C(=O)O)C3)n1` [Example 10p, (S)-8-(2-amino-6-((R)-1-(4-chloro-2-(3-(trifluoromethyl)-1H-pyrazol-1-yl)phenyl)-2,2,2-trifluoroethoxy)pyrimidin-4-yl)-2,8-diazaspiro[4.5]decane-3-carboxylic acid] was tested, and the IC50 was 0.05 to 0.3 µM. Molecule `COc1ccc2cc(-c3ccc([C@@H](Oc4cc(N5CCC6(CC5)CN[C@H](C(=O)O)C6)nc(N)n4)C(F)(F)F)cc3)ccc2n1` [Example 55ah, (S)-8-(2-amino-6-((R)-2,2,2-trifluoro-1-(4-(2-methoxyquinolin-6-yl)phenyl)ethoxy)pyrimidin-4-yl)-2,8-diazaspiro[4.5]decane-3-carboxylic acid] has an IC50 of 0.05 to 0.3 µM. Molecule `Nc1nc(O[C@H](c2ccc(Cl)cc2-c2cccc(OC3CCCC3)c2)C(F)(F)F)cc(N2CCC3(CC2)CN[C@H](C(=O)O)C3)n1` [Example 34cb, (S)-8-(2-amino-6-((R)-1-(5-chloro-3′-(cyclopentyloxy)-[1,1′-biphenyl]-2-yl)-2,2,2-trifluoroethoxy)pyrimidin-4-yl)-2,8-diazaspiro[4.5]decane-3-carboxylic acid] has an IC50 of 0.05 to 0.3 µM. With `Cc1ccn(-c2cc(-c3ccc(F)c(F)c3)ccc2[C@@H](Oc2cc(N3CCC4(CC3)CN[C@H](C(=O)O)C4)nc(N)n2)C(F)(F)F)n1` [Example 1ag, (S)-8-(2-amino-6-((R)-1-(3′,4′-difluoro-3-(3-methyl-1H-pyrazol-1-yl)-[1,1′-biphenyl]-4-yl)-2,2,2-trifluoroethoxy)pyrimidin-4-yl)-2,8-diazaspiro[4.5]decane-3-carboxylic acid] the IC50 was under 0.05 µM. Molecule `CS(=O)(=O)c1ccc(-c2ccc([C@@H](Oc3cc(N4CCC5(CC4)CN[C@H](C(=O)O)C5)nc(N)n3)C(F)(F)F)cc2)cc1` [Example 55cv, (S)-8-(2-amino-6-((R)-2,2,2-trifluoro-1-(4′-(methylsulfonyl)-[1,1′-biphenyl]-4-yl)ethoxy)pyrimidin-4-yl)-2,8-diazaspiro[4.5]decane-3-carboxylic acid] has an IC50 of 0.3 to 3 µM. With `CCOc1ccc(-c2ccc([C@@H](Oc3cc(N4CCC5(CC4)CN[C@H](C(=O)O)C5)nc(C)n3)C(F)(F)F)c(-n3ccc(C)n3)c2)cc1` [Example 29s, (S)-8-(6-((R)-1-(4′-ethoxy-3-(3-methyl-1H-pyrazol-1-yl)-[1,1′-biphenyl]-4-yl)-2,2,2-trifluoroethoxy)-2-methylpyrimidin-4-yl)-2,8-diazaspiro[4.5]decane-3-carboxylic acid] the IC50 was under 0.05 µM. `CCOc1ccc(-c2ccc([C@@H](Oc3cc(N4CCC5(CC4)CN[C@H](C(=O)O)C5)nc(N)n3)C(F)(F)F)cc2)cc1` [Example 55do, (S)-8-(2-amino-6-((R)-1-(4′-ethoxy-[1,1′-biphenyl]-4-yl)-2,2,2-trifluoroethoxy)pyrimidin-4-yl)-2,8-diazaspiro[4.5]decane-3-carboxylic acid] gave an IC50 of under 0.05 µM. In the case of `CC(C)c1cccc(-c2cc(Cl)ccc2[C@@H](Oc2cc(N3CCC4(CC3)CN[C@H](C(=O)O)C4)nc(N)n2)C(F)(F)F)c1` [Example 34bi, (S)-8-(2-amino-6-((R)-1-(5-chloro-3′-isopropyl-[1,1′-biphenyl]-2-yl)-2,2,2-trifluoroethoxy)pyrimidin-4-yl)-2,8-diazaspiro[4.5]decane-3-carboxylic acid], the IC50 is reported as under 0.05 µM. `COc1ccc(-c2ccc([C@@H](Oc3cc(N4CCC5(CC4)CN[C@H](C(=O)O)C5)nc(N)n3)C(F)(F)F)cc2)cc1F` [Example 55e, (S)-8-(2-amino-6-((R)-2,2,2-trifluoro-1-(3′-fluoro-4′-methoxy-[1,1′-biphenyl]-4-yl)ethoxy)pyrimidin-4-yl)-2,8-diazaspiro[4.5]decane-3-carboxylic acid] showed an IC50 of 0.05 to 0.3 µM. With `Cc1ccn(-c2cc(-c3ccc(C(=O)N4CCNCC4)cc3)ccc2[C@@H](Oc2cc(N3CCC4(CC3)CN[C@H](C(=O)O)C4)nc(N)n2)C(F)(F)F)n1` [Example 1cj, (S)-8-(2-amino-6-((R)-2,2,2-trifluoro-1-(3-(3-methyl-1H-pyrazol-1-yl)-4′-(piperazine-1-carbonyl)-[1,1′-biphenyl]-4-yl)ethoxy)pyrimidin-4-yl)-2,8-diazaspiro[4.5]decane-3-carboxylic acid] the IC50 was under 0.05 µM.
